Results on 6 compounds are retold here after PMC8469489, “Effect of Lactic Acid Bacteria on the Pharmacokinetics and Metabolism of Ginsenosides in Mice” (Pharmaceutics, 2021).

Series [1] in a line: Pharmacokinetics of ginsenosides after single oral RGE with or without amoxicillin treatment. It is filed as in vivo, mice. Here is the method:
Male ICR mice (7-weeks-year-old, 30–35 g) were purchased from Samtako Co. (Osan, Kyunggi-do, Korea). Animals were acclimatized for 1 week in an animal facility at Kyungpook National University. Food and water were available ad libitum.
(§1) Before blood sampling, mice were anesthetized using isoflurane (isoflurane vaporizer to 2% with oxygen flow at 0.8 L/min) for 5 min.

Series [2] can be described thus: Recovery of ginsenosides from urine and feces for 48 h after RGE, amoxicillin with or without LAB. As to conditions: feces 48 h after single oral RGE 2 g/kg; Amoxicillin + LAB vs amoxicillin.
Protocol: (§2) Mice received amoxicillin (n = 12, 20 mg/kg, dissolved in water at 2 mL/kg, twice daily) for 3 days via oral gavage. From the 4th day, mice from the LAB + amoxicillin treatment group received LAB (2 g/kg suspended in water at 2 mL/kg, once daily) for 7 days via oral gavage. Mice from the amoxicillin treatment group received water (2 mL/kg, once daily) for 7 days via oral gavage.
The subject of series [3] is lactic acid bacteria (LAB). Nature of the series: In vitro RGE fermentation with LAB. As to conditions: for Alteration of ginsenoside by fermentation of RGE with LAB: 7 days incubation; for Increase of ginsenoside by fermentation of RGE with LAB: 7 days, relative to the first day.
A short description of series [4]: Recovery of ginsenosides from urine and feces for 48 h after RGE, amoxicillin vs control. The following applies: for Fecal recovery, change by the amoxicillin treatment: feces 48 h after single oral RGE 2 g/kg, vs control.
Protocol: Aliquots (200 μL) of an IS (0.05 ng/mL berberine in methanol) were added to 30 μL of plasma or urine samples. Aliquots (600 μL) of an IS methanol solution containing 0.05 ng/mL berberine were added to 100 μL of 10% feces homogenate samples. […] After centrifugation, 200 μL of the supernatant was transferred to a clean tube and dried under a nitrogen stream at 40 °C. The residue was reconstituted using 100 μL of 70% methanol supplemented with 0.1% formic acid, and a 10-μL aliquot was injected into the LC–MS/MS system.
On the set-up of series [5]: method as in PMID 29375375, PMID 28955238. As to conditions: 100–400 mg of CK, once daily for 9 days; cited from earlier work.
The nature of series [6]: Pharmacokinetics of ginsenosides after single oral RGE after amoxicillin with or without repeated LAB treatment. As to conditions: single oral RGE 2 g/kg; for AUC: Amoxicillin + LAB (LAB 2 g/kg once daily 7 days), AUC 0 to 48 h; for Cmax / Half-Life / MRT / Tmax: Amoxicillin + LAB.
Protocol: as §2
Blood sampling was performed using a sparse sampling method via the right or left retro-orbital vein under isoflurane anesthesia at 0, 2, 4, and 8 h after the RGE administration through the heparinized capillary tube. […] After centrifugation of the blood samples at 10,000× g for 1 min, 30 μL aliquots of plasma were stored at −80 °C until the analysis of the ginsenosides. Subsequent protocols were identical to the amoxicillin treated group.
Pharmacokinetic parameters were calculated using WinNonlin (version 5.1, Pharsight, Mountain View, CA, USA) by a non-compartmental analysis.
Details of series [7]: method as in PMID 27516803, PMID 24235859. The following applies: cited from earlier work.
A short description of series [8]: Caco-2 permeability (apical to basal). As to conditions: human, Caco-2, pH 7.4.
Protocol: (§3) The culture medium was replaced every other day. On the day of the experiment, the growth medium was discarded, and the attached cells were washed with prewarmed HBSS (pH 7.4) and preincubated with HBSS for 20 min at 37 °C, and the permeability assay was conducted as previously described [53]. Briefly, to measure the apical to basal permeability of each ginsenoside, 0.5 mL of HBSS containing 50 µM of individual ginsenoside (GRb1, GRb2, GRc, GRd, GRe, GRf, GRg1, GRg3, GRh1, GRh2, GF1, GF2, CK, PPD, or PPT) was added to the apical side (inside of the insert) and 1.5 mL of fresh HBSS was added to the basal side of the insert. […] Aliquots (0.1 mL) in basal side were transferred to clean tubes and stored at −80 °C until further analysis. Transport study was performed for 1 h based on the linearity of the cumulative transport amounts of ginsenosides against the transport time. The integrity of cell monolayers was evaluated before and after the permeability experiments by measuring the transepithelial electrical resistance (TEER) values using an epithelial volt/ohm meter (World Precision Instruments; Sarasota, FL, USA). […]
(§4) For the permeability calculation, the transport rate of ginsenosides and marker conpounds was calculated from the slope of the regression line from the mean permeated amounts vs. incubation time plot.
Series [9] is described as follows: Plasma protein binding by rapid equilibrium dialysis. It is filed as in vitro ADME. As to conditions: 4 h at 37 °C. As to the method:
Briefly, 100 μL of mouse plasma containing 1 μM of each ginsenoside was added to the semipermeable membrane’s inner sample chamber (molecular weight cut-off 8000 Da), and 300 μL of PBS was added to the outer buffer chamber. The samples were then incubated for 4 h at 37 °C on a shaking incubator at 300 rpm, followed by collecting 30-μL aliquots from both the sample and buffer chambers.
Subsequent protocols were identical to the method described above except for the use of ice-cold IS solution (200 μL; 0.05 ng/mL berberine in acetonitrile) to 30 μL of the reaction samples.
Plasma protein binding was calculated using the following equation [31, 60]: Plasma protein binding=(1−Drug concentration in buffer chamber/Drug concentration in plasma sample chamber)×100(%).

For series [10] the following is noted: cited from earlier work.
The subject of a further series is Caco-2 cells. The following applies: cited from earlier work.
Details of series [11]: method as in PMID 26470874. As to conditions: 10–60 mg, intramuscular injection; cited from earlier work.
For series [12], the system named is lactic acid bacteria (LAB). Nature of the series: Incubation of single ginsenoside with LAB (formation rate of metabolite ginsenoside). It is filed as in vitro ADME. The following applies: 7 days, 37 °C, MRS broth. Here is the method: To compare the involvement of LAB on individual ginsenoside, an aliquot (10 μL) of each ginsenoside stock solution (10 mM in methanol) was mixed with autoclaved MRS broth (550 mg/10 mL in distilled water) and added 2 g of LAB (contained 1 billion CFU). Then, the mixture was incubated for 7 days in a shaking incubator at 37 °C and 300 rpm. For the analysis of ginsenosides, 0.2 mL aliquot of incubation mixture was collected every 24 h for 7 days. The incubation medium was diluted 100-fold with distilled water and stored at −80 °C. For the ginsenoside analysis, 200 μL of an IS solution (0.05 ng/mL berberine in methanol) was added to 30 μL of 100-fold diluted samples.

For series [13], the system named is lactic acid bacteria (LAB).
The next series relates to Caco-2 cell monolayers. The following applies: Caco-2, pH 7.4.
The nature of series [14]: Plasma amoxicillin concentrations after repeated oral administration of amoxicillin. It is filed as in vivo, mice. As to conditions: at 24, 48, and 72 h after the beginning of amoxicillin treatment (20 mg/kg/day oral, twice daily, 3 days). Here is the method: as §1
The standard calibration curve for amoxicillin was linear in the concentration range of 2–5000 ng/mL for the plasma samples, and the interday and intraday precision and accuracy were <15%.

A further series deals with LAB. On the set-up: method as in PMID 15902467. As to conditions: cited from earlier work.
The mark [15] stands for this setting: Control, single oral RGE 2 g/kg, plasma.

SMILES strings stand for the structures. Like-named read-outs stand apart in the source and are kept apart here. Bounds are passed on as bounds.

Protocol for Caco-2 cell monolayers: as §3, §4

`CC(C)=CCC[C@](C)(O[C@@H]1O[C@H](CO)[C@@H](O)[C@H](O)[C@H]1O)[C@H]1CC[C@]2(C)[C@@H]1[C@H](O)C[C@@H]1[C@@]3(C)CC[C@H](O)C(C)(C)[C@@H]3CC[C@]12C` [CK, 20(S)-compound K]: in [1] (setting [15]), the Cmax is on record as 3.6 ± 1.4 ng/mL, the Half-Life worked out at 13.2 ± 3.2 h, the MRT was determined as 13.9 ± 5.3 h and the Tmax came to 8.0 ± 0.0 h. This compound came in with an AUC in [1] (Control, single oral RGE 2 g/kg, plasma, AUC 0 to 48 h, n = 3) of 0.06994 ± 0.0378 µg·h/mL. Also, in [1] (single oral RGE 2 g/kg), the “Detection in plasma, amoxicillin treatment group” value is given as “not seen” and the “Detection in plasma, control group” value is “detected”. Besides, the “Fecal recovery, change by LAB treatment” value in series [2] is on record as “significantly increased”. Also, in [3], the “Alteration of ginsenoside by fermentation of RGE with LAB” value (“Alteration of ginsenoside” below) was “significantly increased” and the “Increase of ginsenoside by fermentation of RGE with LAB” value is reported as “about 30%”. Also, in series [4], the “Fecal recovery, change by the amoxicillin treatment” value is “significantly decreased”. In addition, the “Ginsenosides identified in urine” value in series [4] (urine 48 h after single oral RGE 2 g/kg) was “identified in urine”. Moreover, in series [5], the Safety and tolerability result was “safe and well-tolerated”. In [6], the AUC is 0.2498 ± 0.103 µg·h/mL, the Cmax amounted to 9.3 ± 2.9 ng/mL, the Half-Life came out at 12.0 ± 5.0 h and the MRT is reported as 13.7 ± 6.2 h. For the same compound, in [6], the time to peak (Tmax) was determined as 8.0 ± 0.0 h; the “Detection in mouse plasma following repeated LAB administration in addition to amoxicillin” value is given as “detected”; the “Plasma exposure / pharmacokinetic parameters, LAB treatment compared with amoxicillin group” value was “increased”. The “Plasma concentration of CK, Cmax” value in series [7] (subjects who received 3 g fermented RGE (contains 10.9 mg CK)) is recorded as 254.5 ng/mL. In addition, in series [7] (subjects who received RGE (does not contain CK)), the “Plasma concentration of CK, Cmax” value is 8.4 to 24.8 ng/mL.
As to `CC(C)NCC(O)COc1cccc2ccccc12` (stereo not drawn) [propranolol], the Papp A→B at 1 h in [8] worked out at 216 ± 23.5 nm/s. This compound also had a fraction unbound at 4 h, 1 μM in [9] (pooled mouse plasma) of 0.103. Further, in [10], the “Plasma protein binding reference values” is recorded as 87–96%. For the same compound, in the series on Caco-2 cells, the “Papp,AB reference values” is on record as 18.8–33.1 × 10^−6 cm/s.
On to `CC(C)=CCC[C@](C)(O)[C@H]1CC[C@]2(C)[C@@H]1[C@H](O)C[C@@H]1[C@@]3(C)CC[C@H](O[C@@H]4O[C@H](CO)[C@@H](O)[C@H](O)[C@H]4O[C@@H]4O[C@H](CO)[C@@H](O)[C@H](O)[C@H]4O)C(C)(C)[C@@H]3CC[C@]12C` [GRg3], for which the “Increase of plasma exposure over the 6-fold dose range” value in series [11] was 7.3 fold. The “Fecal recovery, change by LAB treatment” value in [2] is listed as “significantly decreased”. Also, in [3], the “Increase of ginsenoside by fermentation of RGE with LAB” value was “about 30%”. Moreover, the “Metabolite formation on incubation of single ginsenoside with LAB” value in [12] was “GRh2 and PPD were produced”. Moreover, the “Fecal recovery, change by the amoxicillin treatment” value in [4] is “increased”. Besides, in series [6], the AUC came to 0.0253 ± 0.0106 µg·h/mL, the Cmax stood at 4.8 ± 1.9 ng/mL, the Half-Life is 5.3 ± 1.1 h and the MRT is 3.5 ± 0.9 h. Further, in [6], the Tmax was found to be 2.5 ± 1.0 h; the “Detection in mouse plasma following repeated LAB administration in addition to amoxicillin” value is on record as “detected”; the “Detection in plasma, control mice and amoxicillin group” value is reported as “not detected”; the “Plasma exposure / pharmacokinetic parameters, LAB treatment compared with amoxicillin group” value is recorded as “increased”.
In the case of `CC(C)=CCC[C@](C)(O)[C@H]1CC[C@]2(C)[C@@H]1[C@H](O)C[C@@H]1[C@@]3(C)CC[C@H](O)C(C)(C)[C@@H]3CC[C@]12C` [PPD, 20(S)-proptopanaxadiol], in [1] (mouse, in vivo, po, 2 g/kg), the Half-Life worked out at 7.9 ± 1.8 h and the MRT is 12.6 ± 4.7 h. Moreover, in [13], the “Alteration of ginsenoside” value is given as “significantly increased”.
With `CC(C)=CCC[C@](C)(O)[C@H]1CC[C@]2(C)[C@@H]1[C@H](O)C[C@@H]1[C@@]3(C)CC[C@H](O)C(C)(C)[C@@H]3[C@@H](O)C[C@]12C` [PPT, 20(S)-protopanaxatriol], in the series with Caco-2 cell monolayers, the “Papp,AB” value was 3.72 ± 0.56 × 10^−6 cm/s. For the same compound, in [1] (mouse, in vivo, po, 2 g/kg), the Half-Life came out at 20.4 ± 2.3 h and the MRT is on record as 20.2 ± 2.2 h. In addition, the Plasma protein binding result in [9] (1 μM, mouse plasma) is reported as “over 99%”. Further, the “Fecal recovery, change by LAB treatment” value in series [2] is “significantly increased”. Further, the “Alteration of ginsenoside” value in series [3] is recorded as “significantly increased”. The “Fecal recovery, change by the amoxicillin treatment” value in [4] was “significantly decreased”.
For the compound `CC1(C)S[C@@H]2[C@H](NC(=O)[C@H](N)c3ccc(O)cc3)C(=O)N2[C@H]1C(=O)O` [amoxicillin], the Plasma amoxicillin concentration in [14] fell in the range of 0.9 to 1.8 µg/mL. Besides, in the series with LAB, the “Concentration of amoxicillin that must be maintained to inhibit the growth of LAB” value is no more than 2 µg/mL.
